Data reported in patent publication US20130197089A1, “COMPOSITIONS FOR THE TREATMENT OF ACTINIC KERATOSIS” (DOLORGIET GMBH & CO. KG, priority 2012, published 2013).

Legend:
[1] = tested on: actinic keratosis lesions; experiment: Second study: 10% ibuprofen gel vs 3% diclofenac gel in patients with actinic keratosis; settings: for Average number of lesions at the start of the study: baseline; for Average IGII at the end of the treatment time: all areas; for Average IGII at the end of the treatment time / Investigator global improvement index (IGII): scale -2 to +4
Experimental: (§1) The application frequency was twice a day. The success of the treatment was evaluated after 30, 60 and 90 days.
(§2) When included in the study, the severity of the lesions was evaluated according to the so-called BSI (baseline severity index) score from 0 to 3. Patients having a BSI score of 1 and 2 were exclusively included in the study.
(§3) The main target parameters within the scope of effectiveness were the total number of lesions in the treatment area and the IGII (investigator global improvement index) score from −2 to +4. From round 1, the evaluations were always done in comparison with the preliminary round.
(§4) IGII (investigator global improvement index) • −2 significant worsening • −1 slight worsening • 0 unchanged • 1 slight improvement • 2 improvement • 3 significant improvement • 4 complete healing
The design of the study was the same as that of the first study.

[2] = tested on: actinic keratosis lesions; experiment: Preliminary study: 5% ibuprofen gel vs 3% diclofenac gel in patients with actinic keratosis; settings: for Development of new lesions during treatment: 90 days of treatment; for Average number of lesions at the start of the study: baseline; for Average number of lesions (total): all areas; for Severity of the lesions (BSI score): during the 90 days of treatment; for Investigator global improvement index (IGII): scale -2 to +4
Experimental: The study was performed according to the relevant criteria and was approved by the ethics commission of the dermatological society of Slovakia.
as §1, §2
BSI score (baseline severity index score 1-3) • 0=no actinic keratosis (AK) visible • 1=clearly visible lesion • 2=many small, moderately thick lesions or a few large scaly lesions visible • 3=many thick hypertrophic lesions that are clearly visible and palpable with clear bounds.
as §3, §4
The IGII was measured between each two rounds.

[3] = cited from earlier work
[4] = Face, 90 days, 10% ibuprofen gel or 3% diclofenac gel
[5] = Face, 10% ibuprofen gel or 3% diclofenac gel
[6] = Forehead, 90 days, 10% ibuprofen gel or 3% diclofenac gel
[7] = Forehead, 10% ibuprofen gel or 3% diclofenac gel, 6 patients per group
[8] = Hands, 90 days, 10% ibuprofen gel or 3% diclofenac gel
[9] = Hands, 10% ibuprofen gel or 3% diclofenac gel
[10] = 90 days, 10% ibuprofen gel or 3% diclofenac gel
[11] = beginning of the treatment, 10% ibuprofen gel or 3% diclofenac gel
[12] = end of the 90 days of treatment, 10% ibuprofen gel or 3% diclofenac gel
[13] = 5% ibuprofen gel or 3% diclofenac gel
[14] = Face, 90 days, 5% ibuprofen gel or 3% diclofenac gel twice a day
[15] = Face, 5% ibuprofen gel or 3% diclofenac gel
[16] = Forehead, 90 days, 5% ibuprofen gel or 3% diclofenac gel twice a day
[17] = Forehead, 5% ibuprofen gel or 3% diclofenac gel twice a day, 12 patients per group
[18] = Hands, 90 days, 5% ibuprofen gel or 3% diclofenac gel twice a day
[19] = Hands, 5% ibuprofen gel or 3% diclofenac gel
[20] = Scalp, 90 days, 5% ibuprofen gel or 3% diclofenac gel twice a day
[21] = Scalp, 5% ibuprofen gel or 3% diclofenac gel
[22] = after 90 days of treatment, 5% ibuprofen gel or 3% diclofenac gel twice a day
[23] = start of study, 5% ibuprofen gel or 3% diclofenac gel
[24] = Forehead, V0 (start of the study)

O=C(O)Cc1ccccc1Nc1c(Cl)cccc1Cl [Diclofenac, diclofenac]
Tolerability ([1]; 10% ibuprofen gel or 3% diclofenac gel, 90 days topical): very good
Average number of lesions after 90 days of treatment [1, 4]: 6.2
Average number of lesions at the start of the study [1, 5]: 12.3
Average number of lesions after 90 days of treatment [1, 6]: 4.2
Average number of lesions at the start of the study [1, 7]: 7.5
Average number of lesions after 90 days of treatment [1, 8]: 8.8
Average number of lesions at the start of the study [1, 9]: 17
Average IGII at the end of the treatment time [1, 10]: 2.29
Total number of lesions [1, 11]: 36.8
Total number of lesions [1, 12]: 19.2
Development of new lesions during treatment [2, 13]: None of the patients developed new lesions
Average number of lesions after 90 days of treatment [2, 14]: 5.5
Average number of lesions at the start of the study [2, 15]: 7
Average number of lesions after 90 days of treatment [2, 16]: 5.3
Average number of lesions at the start of the study [2, 17]: 7.1
Average number of lesions after 90 days of treatment [2, 18]: 17.1
Average number of lesions at the start of the study [2, 19]: 18.1
Average number of lesions after 90 days of treatment [2, 20]: 11.5
Average number of lesions at the start of the study [2, 21]: 15.8
Average number of lesions (total) [2, 22]: 39.4
Average number of lesions (total) [2, 23]: 48
Severity of the lesions (BSI score) [2, 13]: remained virtually unchanged
Undesirable side effects ([2]; during the study, topical 5% ibuprofen gel or 3% diclofenac gel twice a day, 90 days): No undesirable side effects
Tolerability of the therapy ([2]; topical 5% ibuprofen gel or 3% diclofenac gel twice a day, 90 days): well tolerated

CC(C)Cc1ccc(C(C)C(=O)O)cc1 (stereo not drawn) [Ibuprofen, ibuprofen]
Therapeutic result in treating slight and moderate keratosis lesions (in words) ([1]; 10% ibuprofen gel or 3% diclofenac gel, 90 days): pronounced effectiveness
Average number of lesions after 90 days of treatment [1, 4]: 0.7
Investigator global improvement index (IGII) ([1]; Face, V0 (start of the study)): 0
Investigator global improvement index (IGII) ([1]; Face, V3 (after 90 days of treatment), 10% ibuprofen gel or 3% diclofenac gel): 3.7
Average number of lesions at the start of the study [1, 5]: 5.2
Average number of lesions after 90 days of treatment [1, 6]: 0.3
Investigator global improvement index (IGII) [1, 24]: 0
Investigator global improvement index (IGII) ([1]; Forehead, V3 (after 90 days of treatment), 10% ibuprofen gel or 3% diclofenac gel): 3.8
Average number of lesions at the start of the study [1, 7]: 3.3
Investigator global improvement index (IGII) ([1]; Hand, V0 (start of the study)): 0
Investigator global improvement index (IGII) ([1]; Hand, V3 (after 90 days of treatment), 10% ibuprofen gel or 3% diclofenac gel): 3.6
Average number of lesions after 90 days of treatment [1, 8]: 2.7
Average number of lesions at the start of the study [1, 9]: 9.5
Average IGII at the end of the treatment time [1, 10]: 3.7
Total number of lesions [1, 11]: 18
Total number of lesions [1, 12]: 3.7
Patients completely freed from the optically visible lesions ([1]; end of the 90 days of treatment, 10% ibuprofen gel, six patients in group): three
Tolerability ([1]; human, in vivo): very good
Plasma level necessary for a general systemic effect ([3]; systemic effect): ≥ 10000 ng/mL
Plasma level reached in topical application ([3]; topical application): about 2 μg/ml
Development of new lesions during treatment [2, 13]: None of the patients developed new lesions
Average number of lesions after 90 days of treatment [2, 14]: 4.8
Investigator global improvement index (IGII) ([2]; Face, V0 (start of the study)): 0
Investigator global improvement index (IGII) ([2]; Face, V3 (after 90 days of treatment), 5% ibuprofen gel or 3% diclofenac gel): 1.38
Average number of lesions at the start of the study [2, 15]: 5.7
Average number of lesions after 90 days of treatment [2, 16]: 4
Investigator global improvement index (IGII) [2, 24]: 0
Investigator global improvement index (IGII) ([2]; Forehead, V3 (after 90 days of treatment), 5% ibuprofen gel or 3% diclofenac gel): 1.33
Average number of lesions at the start of the study [2, 17]: 4.6
Investigator global improvement index (IGII) ([2]; Hand, V0 (start of the study)): 0
Investigator global improvement index (IGII) ([2]; Hand, V3 (after 90 days of treatment), 5% ibuprofen gel or 3% diclofenac gel): 1
Average number of lesions after 90 days of treatment [2, 18]: 16.9
Average number of lesions at the start of the study [2, 19]: 18.5
Average number of lesions after 90 days of treatment [2, 20]: 6
Investigator global improvement index (IGII) ([2]; Scalp, V0 (start of the study)): 0
Investigator global improvement index (IGII) ([2]; Scalp, V3 (after 90 days of treatment), 5% ibuprofen gel or 3% diclofenac gel): 1
Average number of lesions at the start of the study [2, 21]: 6.3
Average number of lesions (total) [2, 22]: 31.7
Average number of lesions (total) [2, 23]: 35.1
Severity of the lesions (BSI score) [2, 13]: remained virtually unchanged
Tolerability of the therapy ([2]; human, in vivo): well tolerated
Undesirable side effects ([2]; human, in vivo): No undesirable side effects
